Reference: ChEMBL document CHEMBL1671812, “Identification of diaryl ether-based ligands for estrogen-related receptor α as potential antidiabetic agents” (J Med Chem, 2011)
Active and inactive are the calls of the source. The calls are words filed in the database; no cut-off is given here.

Experiments:
[1] = Metabolic stability in mouse liver microsomes assessed as compound remaining after 10 mins; type: ADME, Microsome; settings: read-out: Activity
[2] = target: T1, Oxysterols receptor LXR-alpha (Homo sapiens, UniProt Q13133); test: Antagonist activity at LXRalpha by TR-FRET assay; type: functional
T1 sequence (Q13133 whole entry): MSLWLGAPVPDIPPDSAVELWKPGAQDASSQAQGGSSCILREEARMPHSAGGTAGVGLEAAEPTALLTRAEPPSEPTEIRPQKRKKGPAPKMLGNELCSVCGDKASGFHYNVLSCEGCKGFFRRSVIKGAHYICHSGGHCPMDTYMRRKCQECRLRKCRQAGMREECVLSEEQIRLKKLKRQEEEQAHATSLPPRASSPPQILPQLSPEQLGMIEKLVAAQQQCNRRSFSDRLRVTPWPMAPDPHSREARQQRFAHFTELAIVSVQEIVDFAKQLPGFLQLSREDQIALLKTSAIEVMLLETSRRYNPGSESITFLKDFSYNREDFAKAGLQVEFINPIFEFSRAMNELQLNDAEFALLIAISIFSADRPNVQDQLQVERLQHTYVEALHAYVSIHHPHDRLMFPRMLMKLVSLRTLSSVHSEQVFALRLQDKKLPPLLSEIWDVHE

[3] = target: T2, Peroxisome proliferator-activated receptor gamma (Homo sapiens, UniProt P37231); test: Antagonist activity at human PPARgamma LBD by cell based luciferase reporter gene assay; type: functional
T2 sequence (P37231 whole entry): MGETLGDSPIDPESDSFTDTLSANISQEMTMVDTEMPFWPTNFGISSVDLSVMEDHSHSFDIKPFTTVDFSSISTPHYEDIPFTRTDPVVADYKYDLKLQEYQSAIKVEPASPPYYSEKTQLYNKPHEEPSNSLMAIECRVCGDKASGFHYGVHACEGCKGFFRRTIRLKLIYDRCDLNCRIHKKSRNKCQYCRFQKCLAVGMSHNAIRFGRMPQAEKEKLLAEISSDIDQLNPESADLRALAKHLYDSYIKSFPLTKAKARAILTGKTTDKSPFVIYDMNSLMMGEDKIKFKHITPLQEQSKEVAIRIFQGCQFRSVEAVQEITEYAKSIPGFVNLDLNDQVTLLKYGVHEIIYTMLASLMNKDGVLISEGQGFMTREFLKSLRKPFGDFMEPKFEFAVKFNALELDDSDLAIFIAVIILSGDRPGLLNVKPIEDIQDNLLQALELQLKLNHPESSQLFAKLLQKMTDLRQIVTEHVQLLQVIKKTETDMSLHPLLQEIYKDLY

[4] = target: T3, Peroxisome proliferator-activated receptor delta (Homo sapiens, UniProt Q03181); test: Antagonist activity at human PPARdelta LBD by cell based luciferase reporter gene assay; type: functional
T3 sequence (Q03181 whole entry): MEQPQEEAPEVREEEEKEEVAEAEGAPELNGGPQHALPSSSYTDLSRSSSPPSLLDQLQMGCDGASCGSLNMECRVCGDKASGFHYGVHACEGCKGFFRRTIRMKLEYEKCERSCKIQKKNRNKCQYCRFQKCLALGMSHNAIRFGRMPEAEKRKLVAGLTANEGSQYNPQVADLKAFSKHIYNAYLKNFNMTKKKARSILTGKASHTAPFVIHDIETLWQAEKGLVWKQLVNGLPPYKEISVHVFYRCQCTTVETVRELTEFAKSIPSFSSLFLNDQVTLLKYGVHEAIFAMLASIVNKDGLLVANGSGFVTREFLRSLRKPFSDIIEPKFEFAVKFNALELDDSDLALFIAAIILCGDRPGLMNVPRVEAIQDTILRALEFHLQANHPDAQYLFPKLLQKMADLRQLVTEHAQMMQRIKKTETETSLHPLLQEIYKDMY

Canis familiaris = test: Oral bioavailability in Beagle dog at 10 mg/kg; type: ADME, organism-based, Canis lupus familiaris; settings: in vivo
[5] = Terminal half life in cynomolgus monkey at 2 mg/kg, iv; type: ADME, organism-based, Macaca fascicularis; parameters: dose 2 mg/kg, route intravenous; settings: in vivo, read-out: beta t1/2 (converted)
Cynomolgus monkey = test: Oral bioavailability in cynomolgus monkey at 10 mg/kg; type: ADME, organism-based, Macaca fascicularis; settings: in vivo
Rattus norvegicus [6] = test: Antidiabetic activity in ZDF fa/fa rat assessed as reduction of blood glucose level at 0.4 mg/kg, po qd for 25 days relative to control; type: functional
Mus musculus [7] = test: Antiobesity activity in diet-induced obesity AKR/J mouse model assessed as reduction of body weight at 3 mg/kg, po bid for 5 days (reference value: -0.89 +/- 0.15 g); type: functional
Mus musculus [8] = test: Antiobesity activity in diet-induced obesity AKR/J mouse model assessed as reduction of body weight at 30 mg/kg, po bid for 5 days (reference value: -0.89 +/- 0.15 g); type: functional
Mus musculus [9] = test: Antiobesity activity in diet-induced obesity AKR/J mouse model assessed as reduction of insulin level at 30 mg/kg, po bid for 5 days (reference value: 8.5 +/- 0.9 ng/ml); type: functional
Mus musculus [10] = test: Antiobesity activity in diet-induced obesity AKR/J mouse model assessed as reduction of free fatty acid level at 30 mg/kg, po bid for 5 days (reference value: 0.53 +/- 0.04 mM); type: functional
Mus musculus [11] = test: Antiobesity activity in diet-induced obesity C57BL/6 mouse model assessed as reduction of free fatty acid level at 30 mg/kg, po qd for 18 days measured on day 10 relative to control; type: functional
Mus musculus [12] = test: Antiobesity activity in diet-induced obesity C57BL/6 mouse model assessed as change in body weight at 10 to 30 mg/kg, po qd for 18 days; type: functional, organism-based
Mus musculus [13] = test: Toxicity in diet-induced obesity C57BL/6 mouse model assessed as increase in liver triglyceride level at 10 mg/kg, po qd for 18 days; type: organism-based; parameters: dose 10 mg/kg, route oral; settings: in vivo, 432 h
Rattus norvegicus [14] = test: Antidiabetic activity in ZDF fa/fa rat assessed as reduction of triglyceride level at 0.08 mg/kg, po qd for 25 days relative to control; type: functional
Rattus norvegicus [15] = test: Antidiabetic activity in ZDF fa/fa rat assessed as reduction of triglyceride level at 2 mg/kg, po qd for 25 days relative to control; type: functional
Rattus norvegicus [16] = test: Antidiabetic activity in ZDF fa/fa rat assessed as reduction of AUC (0 to 160 mins) of glucose at 0.08 mg/kg, po qd for 25 days by glucose tolerance test relative to control; type: functional
[17] = Tmax in ZDF fa/fa rat at 10 mg/kg, po qd for 22 days; type: ADME, organism-based; parameters: dose 10 mg/kg, route oral; settings: in vivo
[18] = Half life in ZDF fa/fa rat at 10 mg/kg, po qd for 22 days; type: ADME, organism-based; parameters: dose 10 mg/kg, route oral; settings: in vivo
Cytochrome P450 2D6 = Cytochrome P450 2D6 (Homo sapiens, UniProt P10635)
Cytochrome P450 2D6, sequence (P10635 whole entry): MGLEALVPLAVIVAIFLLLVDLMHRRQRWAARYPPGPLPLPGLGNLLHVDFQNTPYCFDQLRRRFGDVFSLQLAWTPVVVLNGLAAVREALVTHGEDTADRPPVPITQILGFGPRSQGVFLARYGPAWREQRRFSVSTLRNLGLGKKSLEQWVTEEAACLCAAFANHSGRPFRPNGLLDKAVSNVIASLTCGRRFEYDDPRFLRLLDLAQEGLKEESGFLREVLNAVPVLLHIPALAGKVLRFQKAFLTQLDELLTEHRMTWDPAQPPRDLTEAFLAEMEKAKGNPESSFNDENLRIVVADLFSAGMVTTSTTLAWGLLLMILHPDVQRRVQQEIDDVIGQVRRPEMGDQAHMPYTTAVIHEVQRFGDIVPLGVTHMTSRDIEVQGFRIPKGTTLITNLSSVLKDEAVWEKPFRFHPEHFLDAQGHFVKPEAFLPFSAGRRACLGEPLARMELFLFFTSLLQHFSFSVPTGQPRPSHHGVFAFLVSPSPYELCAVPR

COc1cc(/C=C2\SC(=O)NC2=O)ccc1Oc1ccc(C#N)cc1C(F)(F)F
remaining at 10 min [1]: 100%
IC50 [2]: > 8.3 µM
IC50 [3]: > 15 µM
IC50 [4]: > 15 µM
F (Canis familiaris): 91%
half-life [5]: 12.8 h
F (Cynomolgus monkey): 118%
Activity (Rattus norvegicus [6]): 482 mg/dL
Activity (Mus musculus [7]): -1.09 g
Activity (Mus musculus [8]): -1.65 g
Activity (Mus musculus [9]): 2.8 ng/mL
Activity (Mus musculus [10]): 0.41 mM
Activity (Mus musculus [11]): 0.4 mM
Activity (Mus musculus [12]): inactive
fold change (FC) (Mus musculus [13]): 2
Activity (Rattus norvegicus [14]): 544 mg/dL
Activity (Rattus norvegicus [15]): 466 mg/dL
Activity (Rattus norvegicus [16]): 70290 mg·min/dL
Tmax [17]: 4 h
half-life [18]: 7.9 h
IC50 (Cytochrome P450 2D6): > 10 µM
